Key:
[1] = biological target: 5-HT2A receptor (Homo sapiens, UniProt P28223); assay: Calcium mobilization (Fluo-8) assay in CHO-K1 cells stably expressing 5-HT2A (+5-HT2A); format: cell-based
Procedure: Briefly, vials with cells were removed from the liquid nitrogen and thawed quickly in 37° C. water bath.

[2] = tested on: CHO-K1/Galpha15 cells (−5-HT2A); assay: Calcium mobilization (Fluo-8) assay in control cells lacking 5-HT2A (−5-HT2A); format: cell-based, Chinese Hamster; settings: CHO-K1/Galpha15 control cells lacking 5-HT2A
Excerpt: Cell lines for pharmacology assays. CHO-K1/Galpha15 (GenScript, M00257) (−5-HT2A) and CHO-K1/5-HT2A (GenScript, M00250) (+5-HT2A) cells lines were used in both toxicology/growth inhibition (MTT) and calcium release assays. Briefly, CHO-K1/Galpha15 is a control cell line that constitutively expresses Galpha15 which is a promiscuous Gq protein. It is engineered as a host cell, allowing transfected receptor(s) to signal through the Gq signal transduction pathway and mobilize intracellular calcium from the endoplasmic reticulum (ER). These control cells lack any transgene encoding 5-HT2A receptors, thus preventing calcium mobilization in response to 5-HT2A activation. Conversely, CHO-K1/5-HT2A cells stably express 5-HT2A receptor in the CHO-K1 host background. This design enables Gq-11 expressed in CHO-K1 cells to mobilize intracellular calcium changes when 5-HT2A receptors are activated by ligands.
Cell lines were maintained in Ham's F12 media plus 10% FBS in the presence of 100 ug/ml hygromycin for CHO-K1/Ga15 or 400 ug/ml G418 for CHO-K1/5-HT2A unless indicated otherwise for specific assays. Cell maintenance was carried out as recommended by the cell supplier. Briefly, vials with cells were removed from the liquid nitrogen and thawed quickly in 37° C. water bath. […]
Increase in cytosolic calcium concentration by 5-HT2A activation. Changes in intracellular calcium concentration due to the treatment with assay compounds was measured using Fluo-8 dye (Abcam, #ab112129) according to the manufacturer's instructions. […] Fluorescence (ex 490 nm/em 525 nm) obtained after the addition of molecules was expressed relative to values obtained before addition of the molecules (relative Fluo-8 fluorescence=Fmax/F0, where Fmax=maximum fluorescence and F0=baseline fluorescence). Fluorescence intensities were measured using a Spectramax ID3 plate reader (www.moleculardevices.com). Relative fluorescence (RFU) was plotted with respected to time (seconds) illustrating time-dependent calcium flux. […] The Example compound (Ill) was then evaluated.

5-HT2A receptor, sequence (P28223 whole entry): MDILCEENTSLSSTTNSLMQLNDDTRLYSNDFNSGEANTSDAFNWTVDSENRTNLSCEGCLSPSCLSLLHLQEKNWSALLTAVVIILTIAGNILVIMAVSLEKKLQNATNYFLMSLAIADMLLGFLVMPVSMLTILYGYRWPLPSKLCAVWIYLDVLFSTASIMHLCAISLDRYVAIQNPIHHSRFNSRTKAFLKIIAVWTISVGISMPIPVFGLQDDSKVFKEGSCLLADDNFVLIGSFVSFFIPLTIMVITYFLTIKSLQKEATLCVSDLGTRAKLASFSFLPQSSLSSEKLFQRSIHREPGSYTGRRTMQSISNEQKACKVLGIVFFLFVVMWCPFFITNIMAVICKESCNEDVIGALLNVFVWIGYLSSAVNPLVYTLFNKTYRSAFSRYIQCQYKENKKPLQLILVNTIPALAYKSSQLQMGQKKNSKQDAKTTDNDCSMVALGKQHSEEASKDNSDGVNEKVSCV

| SMILES | dose dependence of calcium flux response ([1]; +5-HT2A cells, 0.001-100 μM) | calcium flux response in −5-HT2A cells [2] | EC50 ([1]; CHO-K1/5-HT2A (+5-HT2A) cells, four parameter logistic curve fitting, GraphPad Prism, read-out: EC50 of relative Fluo-8 fluorescence (calcium mobilization)) | time to peak of intracellular calcium flux ([1]; +5-HT2A cells, 0.001-100 μM, relative Fluo-8 fluorescence vs time) |
| --- | --- | --- | --- | --- |
| CN(C)CCc1c[nH]c2cccc(O)c12 [psilocin, reference compound] | response increased with dosage | did not exhibit a response |  |  |
| NCCc1c[nH]c2cccc(O[C@@H]3OC(CO)[C@@H](O)C(O)C3O)c12 (stereo partly drawn) [III, 4-O-β-D-glucopyranosyltryptamine] | response increased with dosage | did not exhibit a response |  |  |
| CN(C)CCc1c[nH]c2cccc(O[C@@H]3OC(CO)[C@H](O)C(O)C3O)c12 (stereo partly drawn) [VI, N,N-dimethyl-4-O-β-D-galactopyranosyltryptamine] |  |  | 3.81 µM |  |
| NCCc1c[nH]c2cccc(O[C@@H]3OC(CO)[C@H](O)C(O)C3O)c12 (stereo partly drawn) [V, 4-O-β-D-galactopyranosyltryptamine] | response increased with dosage | did not exhibit a response |  | under 60 seconds |

Source: patent publication US11891360B2, “Glycosylated psilocybin derivatives and methods of using” (Enveric Biosciences Canada Inc., priority 2020, dated 2024)
